Reference: article PMC12029836, “Phytotoxicity, Cytotoxicity, and Antimicrobial Activity of Triethanolammonium Amino Acids Salts” (Molecules, 2025)
Like-named read-outs stand apart in the source and are kept apart here.

Experiments:
[1] = system: Lepidium sativum L. roots; settings: 24 h incubation, mean(±SD), n = 3
[2] = system: Lepidium sativum L. seeds; settings: 24 h incubation, mean(±SD), n = 3
[3] = 0.01% (w/w) compound in the medium
[4] = 0.03% (w/w) compound in the medium
[5] = 0.05% (w/w) compound in the medium
[6] = 0.10% (w/w) compound in the medium
[7] = 0.30% (w/w) compound in the medium
[8] = 0.50% (w/w) compound in the medium
[9] = 1.00% (w/w) compound in the medium
[10] = 2.00% (w/w) compound in the medium
[11] = 3.00% (w/w) compound in the medium
[12] = 4.00% (w/w) compound in the medium
[13] = 5.00% (w/w) compound in the medium

| SMILES | Inhibition of the root growth in pregerminated Lepidium sativum seeds (IRG, %) [1, 3] | Inhibition of the root growth in pregerminated Lepidium sativum seeds (IRG, %) [1, 4] | Inhibition of the root growth in pregerminated Lepidium sativum seeds (IRG, %) [1, 5] | Inhibition of the root growth in pregerminated Lepidium sativum seeds (IRG, %) [1, 6] | Inhibition of the root growth in pregerminated Lepidium sativum seeds (IRG, %) [1, 8] | Inhibition of the root growth in pregerminated Lepidium sativum seeds (IRG, %) [1, 9] | Inhibition of the root growth in pregerminated Lepidium sativum seeds (IRG, %) [1, 10] | Inhibition of the root growth in pregerminated Lepidium sativum seeds (IRG, %) [1, 11] | Inhibition of the root growth in pregerminated Lepidium sativum seeds (IRG, %) [1, 12] | Inhibition of the root growth in pregerminated Lepidium sativum seeds (IRG, %) [1, 13] | Inhibition of the Lepidium sativum seeds germination (ISG, %) [2, 3] | Inhibition of the Lepidium sativum seeds germination (ISG, %) [2, 4] | Inhibition of the Lepidium sativum seeds germination (ISG, %) [2, 5] | Inhibition of the Lepidium sativum seeds germination (ISG, %) [2, 6] | Inhibition of the Lepidium sativum seeds germination (ISG, %) [2, 7] | Inhibition of the Lepidium sativum seeds germination (ISG, %) [2, 8] | Inhibition of the Lepidium sativum seeds germination (ISG, %) [2, 9] | Inhibition of the Lepidium sativum seeds germination (ISG, %) [2, 10] | Inhibition of the Lepidium sativum seeds germination (ISG, %) [2, 11] | Inhibition of the Lepidium sativum seeds germination (ISG, %) [2, 12] | other results |
| --- | --- | --- | --- | --- | --- | --- | --- | --- | --- | --- | --- | --- | --- | --- | --- | --- | --- | --- | --- | --- | --- |
| NC(=O)CCC(N)C(=O)O.OCCN(CCO)CCO (stereo not drawn) [[TEA][Gln]] | 13.0(±2.0) % | 20.7(±1.8) % | 21.0(±2.2) % | 26.9(±1.8) % | 63.6(±1.3) % | 72.9(±0.9) % | 78.1(±1.0) % | 85.2(±0.9) % | 92.4(±0.5) % | 93.6(±0.5) % | 0.0(±0.0) % | 0.0(±0.0) % | 0.0(±0.0) % | 1.7(±2.2) % | 9.2(±1.3) % | 15.0(±0.5) % | 20.8(±2.6) % | 38.1(±2.1) % | 53.8(±2.5) % | 86.7(±1.3) % | Inhibition of the root growth in pregerminated Lepidium sativum seeds (IRG, %) [1, 7]: 50.5% |
| N[C@@H](Cc1c[nH]c2ccccc12)C(=O)O.OCCN(CCO)CCO [[TEA][Trp]] | 38.1% | 41.1(±1.2) % | 48.8(±1.0) % | 51.9(±1.0) % | 54.7(±1.0) % | 57.6(±0.8) % | 69.0(±0.8) % | 76.0(±0.7) % | 88.8(±0.6) % | 95.0(±0.4) % | 0.0(±0.0) % | 1.9(±0.5) % | 3.7(±1.3) % | 12.0(±0.8) % | 16.7(±2.2) % | 18.5(±1.8) % | 28.7(±1.3) % | 38.9(±1.6) % | 53.7% | 61.1(±1.4) % | Inhibition of the root growth in pregerminated Lepidium sativum seeds (IRG, %) [1, 7]: 53.3(±0.4) %; Inhibition of the Lepidium sativum seeds germination (ISG, %) [2, 13]: 83.3(±0.8) % |
| NC(CCC(=O)O)C(=O)O.OCCN(CCO)CCO.OCCN(CCO)CCO (stereo not drawn) [[TEA]2[Glu]] | 10.0(±2.9% | 18.1(±2.7) % | 21.3(±2.7) % | – | 44.4(±2.2) % | 51.5(±2.1) % | 68.2(±1.3) % | 78.5(±0.6) % | 87.0(±0.4) % | 90.5(±0.7) % | 0.0(±0.0) % | 0.0(±0.0) % | 0.0(±0.0) % | 3.7(±0.9) % | 5.6(±0.9) % | 7.4(±0.9) % | 14.8(±2.5) % | 22.2(±2.2) % | 29.6(±1.7) % | 37.0(±0.5) % | Inhibition of the Lepidium sativum seeds germination (ISG, %) [2, 13]: 63.0(±0.5) % |
| N[C@@H](CC(=O)O)C(=O)O.OCCN(CCO)CCO.OCCN(CCO)CCO [[TEA]2[Asp]] | 7.7(±1.9) % | 8.6(±2.1) % | 11.6(±1.9) % | 29.6(±2.0) % | 36.6(±1.6) % | 40.7(±1.2) % | 65.4(±0.7) % | 76.7(±0.7) % | 82.2(±0.6) % | 86.2(±0.5) % | 1.8(±0.1) % | 3.6(±1.3) % | 7.3(±0.8) % | 9.1(±0.5) % | 12.7(±0.8) % | 16.4(±1.3) % | 18.2(±0.8) % | 19.1(±1.3) % | 20.0(±0.5) % | 30.9(±0.9) % | Inhibition of the root growth in pregerminated Lepidium sativum seeds (IRG, %) [1, 7]: 32.6(±1.5) %; Inhibition of the Lepidium sativum seeds germination (ISG, %) [2, 13]: 50.9(±0.8) % |
| NC(=O)C[C@H](N)C(=O)O.OCCN(CCO)CCO [[TEA][Asn]] | 4.5(±1.6) % | 11.6(±1.6) % | 16.0(±1.6) % | 32.5(±1.7) % | 42.7(±1.5) % | 58.9(±1.1) % | 76.9(±1.0) % | 81.5(±0.9) % | 85(±0.8) % | 88.2(±0.7) % | 5.6(±2.9) % | 6.5(±1.3) % | 7.4(±0.5) % | 9.3(±1.3) % | 12.0(±0.9) % | 14.8(±2.4) % | 20.4(±2.6) % | 33.3(±2.9) % | 46.3(±0.9) % | 67.6(±2.9) % | Inhibition of the root growth in pregerminated Lepidium sativum seeds (IRG, %) [1, 7]: 34.9%; Inhibition of the Lepidium sativum seeds germination (ISG, %) [2, 13]: 88.9(±1.4) % |
| CC(C)[C@H](N)C(=O)O.OCCN(CCO)CCO [[TEA][Val]] | 11.6% | 11.9(±3.3) % | 21.7(±2.8) % | 32.7(±2.9) % | 54.8(±2.6) % | 62.9(±2.4) % | 73.3(±1.5) % | 77.6(±1.7) % | 82.0(±1.0) % | 89.9(±0.74) % | 0.0(±0.9) % | 0.0(±1.7) % | 0.0(±1.2) % | 0.0(±1.2) % | 1.9(±0.5) % | 3.8(±1.7) % | 5.7(±0.5) % | 17.0(±0.5) % | 28.3(±0.5) % | 34.0(±1.3) % | Inhibition of the root growth in pregerminated Lepidium sativum seeds (IRG, %) [1, 7]: 49.1(±2.5) %; Inhibition of the Lepidium sativum seeds germination (ISG, %) [2, 13]: 52.8(±1.3) % |
